The target of assay [1] is T1, equine serum butyrylcholinesterase (EqBuChE) (Equus caballus, UniProt P81908). Put plainly: Enzymatic kinetic study. The class given is biochemical, horse.
Assay [2] concerns the target T2, electric eel acetylcholinesterase (EeAChE) (Electrophorus electricus, UniProt O42275). The experiment in a line: Enzymatic kinetic study. In kind it is biochemical.
Assay [3] concerns the target T2, electric eel acetylcholinesterase (EeAChE). Put plainly: Anticholinesterase activity assay. The class given is biochemical.
Assay [4] has as its target T1, equine serum butyrylcholinesterase (EqBuChE). The experiment in a line: Anticholinesterase activity assay. In kind it is biochemical, horse.

A value given as a limit tells only on which side of the number the result lay.

T1 sequence (P81908 whole entry): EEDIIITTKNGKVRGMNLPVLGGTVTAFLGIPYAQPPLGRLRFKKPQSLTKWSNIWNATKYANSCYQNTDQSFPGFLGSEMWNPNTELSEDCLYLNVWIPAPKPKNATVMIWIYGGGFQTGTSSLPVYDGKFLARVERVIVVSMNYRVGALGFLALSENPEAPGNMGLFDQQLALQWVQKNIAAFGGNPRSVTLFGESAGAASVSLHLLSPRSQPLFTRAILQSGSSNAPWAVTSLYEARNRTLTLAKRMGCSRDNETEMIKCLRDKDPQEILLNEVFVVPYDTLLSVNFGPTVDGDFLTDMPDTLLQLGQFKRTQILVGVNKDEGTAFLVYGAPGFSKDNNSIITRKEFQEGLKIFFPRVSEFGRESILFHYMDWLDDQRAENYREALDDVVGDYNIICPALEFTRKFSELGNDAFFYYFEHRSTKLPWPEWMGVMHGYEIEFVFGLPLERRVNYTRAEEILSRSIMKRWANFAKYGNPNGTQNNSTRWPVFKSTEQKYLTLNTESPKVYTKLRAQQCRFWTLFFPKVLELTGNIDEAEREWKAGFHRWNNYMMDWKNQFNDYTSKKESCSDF
T2 sequence (O42275 24-633): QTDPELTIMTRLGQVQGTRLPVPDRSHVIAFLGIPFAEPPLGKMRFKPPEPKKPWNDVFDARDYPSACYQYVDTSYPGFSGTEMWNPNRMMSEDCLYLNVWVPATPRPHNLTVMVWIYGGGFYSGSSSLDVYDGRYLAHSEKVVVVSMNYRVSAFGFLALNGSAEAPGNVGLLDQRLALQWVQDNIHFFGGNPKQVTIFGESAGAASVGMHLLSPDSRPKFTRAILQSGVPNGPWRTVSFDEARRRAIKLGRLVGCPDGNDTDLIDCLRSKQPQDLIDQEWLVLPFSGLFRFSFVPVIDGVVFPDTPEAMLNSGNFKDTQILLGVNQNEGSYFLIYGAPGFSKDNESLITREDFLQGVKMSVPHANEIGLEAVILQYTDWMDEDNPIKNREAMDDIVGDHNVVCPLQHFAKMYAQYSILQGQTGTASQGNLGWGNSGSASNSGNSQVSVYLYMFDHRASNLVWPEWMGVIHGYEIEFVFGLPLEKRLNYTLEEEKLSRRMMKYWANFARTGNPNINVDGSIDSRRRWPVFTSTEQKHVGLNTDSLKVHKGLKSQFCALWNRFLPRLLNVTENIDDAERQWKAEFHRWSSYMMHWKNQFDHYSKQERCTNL

Take `c1ccc(CN2CCN(CCCNc3nc(-c4ccccc4)n(-c4ccccc4)n3)CC2)cc1` [Compound 13a, N-(3-(4-benzylpiperazin-1-yl)propyl)-1,5-diphenyl-1H-1,2,4-triazol-3-amine]: the “type of inhibition, BuChE” value in assay [1] is “mixed-type inhibition”. Also, in assay [2], the “type of inhibition, AChE” value is reported as “mixed-type inhibition”.
In the case of `c1ccc(CN2CCN(CCCCNc3nc(-c4ccccc4)n(-c4ccccc4)n3)CC2)cc1` [Compound 13b, N-(4-(4-benzylpiperazin-1-yl)butyl)-1,5-diphenyl-1H-1,2,4-triazol-3-amine], the IC50 was determined as 3790 ± 61 nM in assay [3] and 1630 ± 111 nM in assay [4].
Turning to `Nc1nc(-c2ccccc2)n(-c2ccccc2)n1` [Compound 6a, 1,5-Diphenyl-1,2,4-triazol-3-amine], the “cholinesterase inhibition (AChE), in words” value in assay [3] (at 30 μM) is on record as “no significant cholinesterase inhibition”. Further, the inhibition at 30 µM in assay [3] (read-out: AChE inhibition (class NA in IC50 column)) and in assay [4] (read-out: BuChE inhibition (class NA in IC50 column)) was < 20% each time. The “cholinesterase inhibition (BuChE), in words” value in assay [4] (at 30 μM) is reported as “no significant cholinesterase inhibition”.
Turning to `c1ccc(CN2CCN(CCCCCCNc3nc(-c4ccccc4)n(-c4ccccc4)n3)CC2)cc1` [Compound 13d, N-(6-(4-benzylpiperazin-1-yl)hexyl)-1,5-diphenyl-1H-1,2,4-triazol-3-amine], the IC50 amounted to 5220 ± 188 nM in assay [3] and 2210 ± 68 nM in assay [4].
Taken in the same sequence, the figures for `c1ccc(CN2CCN(CCCCCNc3nc(-c4ccccc4)n(-c4ccccc4)n3)CC2)cc1` [Compound 13c, N-(5-(4-benzylpiperazin-1-yl)pentyl)-1,5-diphenyl-1H-1,2,4-triazol-3-amine] were 11000 ± 251 nM and 1650 ± 59 nM.

The record behind these values is PMC9065794 (RSC Advances, 2019).
